Experimental findings from patent publication US10041096B2, “Methods and products for generating oils” (The Texas A&M University System, priority 2011, dated 2018) are described below.

SMILES strings stand for the structures.

Assay type in all cases: cell-based
Assay [1] concerns KAS603, a Chlorella sp. The experiment in a line: Total lipid extraction with HPLC/TLC lipid profile after sodium oxamate treatment. The protocol: Sodium Oxamate Dosing: Sodium oxamate was added to three of the four cultures (see FIG. 1). A 1 L sample was collected at time 0, 24 and 48 hours for each culture (a total of 4 samples per time point). The algal cells were pelleted and oils extracted at each time point. Quantitative oil profiles of extracted lipids were generated by TLC and HPLC.
(§1) Algal growth: KAS603, a Chlorella sp. was scaled in F/2 growth medium to ˜300 L in a vertical air lift bioreactor under 12/12 artificial illumination. Growth of the culture was monitored for density, chlorophyll accumulation, and for the presence of invasive species. Growth kinetics were typical and observation of invasive species was limited (sparse bacteria) and typical. The algae were grown under nutrient rich and light limiting conditions.
Total lipid extraction: 1 L samples were pelleted via centrifugation at 3000 rpm for 5 min. The pellets were resuspended in 10 ml of methanol and incubated at 65° C. for 1 h. The methanol was replaced with chloroform and incubated at 50° C. for 10 min. The chloroform was replaced with hexane and incubated at 50° C. for an additional 10 min. The extracts were pooled and distilled. The weights of the dried extracts were recorded prior to resuspension in 100 μl chloroform for TLC analysis, or in 2:1 chloroform:methanol (v/v) to a final concentration of ˜10 mg/mL and loaded for HPLC analysis (Surveyor LC Pump and Autosampler Plus, Thermo Finnegan). A splitter (Analytical Scientific Instruments) was employed to divide the sample 1:20 between a quadrapole MS (Thermo Finnegan MSQ Plus) and an ELSD (Sedere Sedex 75), respectively.
(§2) Lipid Analyses: TLC—Dried extracts were resuspended in 100 μl of CHCl3. 2.5 μl of each sample was spotted onto silica gel matrix TLC plates (Sigma #2599) and resolved with hexane:diethyl ether:acetic acid (80:20:1). Carotenoids such as β-carotene were visible as yellow bands on the plate, while chlorophyll and chlorophyll breakdown products were visible as green or green/gray bands, respectively. Lipids other than carotenoids and chlorophyll were visualized with iodine vapors. The extracted samples were compared to commercially available lipid standards consisting of 1 μg/μl each of glyceryl trioleate (TAG), 1,3-Diolein (1,3 DAG), 1,2-dioleoyl-rac-glycerol (1,2 DAG), monoolein (MAG), and oleic acid (FFA).

The test system of assay [2] is KAS603, a Chlorella sp. The experiment in a line: Culture growth: dry weight density and chlorophyll a during compound treatment. The following applies: four 80 L cultures during the treatment period. The protocol:
Algal growth: KAS603, a Chlorella sp. was scaled in F/2 growth medium to ˜300 L in a vertical air lift bioreactor under 12/12 artificial illumination. Growth of the culture was monitored for density, chlorophyll accumulation, and for the presence of invasive species. Growth kinetics were typical and observation of invasive species was limited (sparse bacteria) and typical. The algae were grown under nutrient rich and light limiting conditions. […] Dry Weight Analysis: 10 ml of control and treated culture samples were pelleted via centrifugation at 3000 rpm for 5 minutes. The pellet was washed 1× with dH2O to remove salts. Following a second centrifugation step, the pellet was transferred to a pre-weighed aluminum dish and dried to a constant weight at 26.5° C. Cellular Growth/Density: Cellular growth and density can be characterized by the concentration of chlorophyll a in a sample. Chlorophyll a absorbs light at 435 nm and 680 nm, which can be accurately measured spectrophotometrically. Prior to the dry weight analysis, 10 ml samples were analyzed for absorbance at 435 nm and 680 nm. Based on the established chlorophyll a standard curve, chlorophyll a was calculated and reported as “mg chlorophyll a”.

Assay [3] deals with P. Parvum. Nature of the assay: Nile Red fluorescence within cells after sodium oxamate. The following applies: range of sodium oxamate concentrations.
The next assay has as its system Chlorella sp. Described as above. To be noted: range of sodium oxamate concentrations.
The next assay deals with Schizochytrium sp. Described as above. The following applies: range of sodium oxamate concentrations.
Assay [4] relates to P. Parvum. Nature of the assay: Growth curves of oxamate treated algae (spike-in). To be noted: small-scale cultures, oxamate added every three days, vs growth medium only. The procedure: Small-scale […] P. Parvum cultures were grown and treated with oxamate. Four (A-D in FIG. 13) of the small scale cultures were treated with oxamate stock in growth medium, added every three days, corresponding to the points on the curve. Two (E-F in FIG. 13) of the cultures had only growth medium added.

In assay [5] the test system is KAS603, a Chlorella sp. The experiment in a line: Recovery and measurement of extracellular lipids (hexane sweep, weight, HPLC, TLC) after glyburide treatment. The following applies: for Weights of oil recovered from outside cells following glyburide treatment: from 1 L of culture. The procedure: Glyburide Dosing: After 48 hours, the sodium oxamate time course was complete. A 1 L sample of each culture was collected and treated to recover oil outside the cells (if any) at t=0. The three cultures that had previously been treated with sodium oxamate were subsequently treated with 0.05 mM glyburide. Extracellular lipids in 1 L aliquots of the cultures were collected at 4 hours and 24 hours after the addition of glyburide by hexane sweep; dry cell weights were also calculated on separate aliquots of the culture. Oils recovered were analyzed via TLC and HPLC.
as §1, §2
Recovery and Measurement of Extracellular Lipids: Cells that were exposed to the secretion compound glyburide were swept briefly with hexane at room temperature. 50 ml of hexane was added to 1 L samples from each study group, then mixed thoroughly, but gently, by inversion. The cells were re-centrifuged and the hexane layer containing the recovered lipids was transferred to a pre-weighed vial. The hexane was evaporated and the dried lipids were re-weighed. The dried lipids were subsequently analyzed by TLC or HPLC/MS as described.

In another assay the test system is algal cells. The experiment in a line: Nile Red fluorescence in growth medium after glyburide. The following applies: following treatment with glyburide.
In assay [6] the test system is P. Parvum. The experiment in a line: Oil secretion in P. Parvum cultures after glyburide (surface sheen, TLC of supernatant extract). The protocol:
A control culture of P. Parvum was grown and split into two 500 mL cultures. Glyburide was added to one of the cultures and the culture was shaken for 24 h.
A 1 L P. parvum culture (˜2 million cells/mL) treated with oxamate was split into two subcultures of 400 mL each. Glyburide dissolved in DMSO was added to one subculture. The other subculture received the DMSO carrier (control) that the glyburide had been dissolved in. The two cultures were incubated on the shaker for 24 h and subsequently off the shaker for ˜2 h.
The cells were then pelleted and a 200 mL sample of the culture supernatant was removed from each culture. Each of the removed samples was briefly extracted with nonpolar solvent. The organic extracts were then dried down and the remainder was resuspended in an equal volume of solvent. An equal volume of each (as well as pure TAG as a standard) was loaded on a TLC plate. A chromatogram was developed and stained with iodine vapors. […] Both subcultures had similar amounts of phospholipids (PL). This is likely due to the presence of dead cell membranes in the supernatant extract. Both test samples also had either some monoglycerides (MG) or more likely, the pigment fucoxanthin.

Take `NC(=O)C(=O)[O-].[Na+]` [sodium oxamate]: in the assay on KAS603, a Chlorella sp. [1] (0.3 mM sodium oxamate at 48 h vs untreated control at time 0), the “uncharacterized polar lipids (HPLC)” value is “increases in uncharacterized polar lipids”. Further, the “chlorophyll and total lipids in total extracts (HPLC)” value in the assay on KAS603, a Chlorella sp. [1] (0.3 mM sodium oxamate, treated versus untreated groups) is “increases in chlorophyll and total lipids were detected”. The “TAG accumulation in oil extracts” value with KAS603, a Chlorella sp. [1] (0.3 mM sodium oxamate, up to 48 h) is “Significant TAG accumulation was not found”. For the same compound, the “quantity of "other" lipid species” value with KAS603, a Chlorella sp. [1] (oxamate treated cultures vs untreated) is “trended higher”. The “undefined lipids (UN) in total extracts by TLC” value in the assay with KAS603, a Chlorella sp. [1] (oxamate treated vs untreated groups) is “did not differ between treated and untreated groups”. Also, in the assay with KAS603, a Chlorella sp. [1] (throughout the oxamate treatment phase), the “Hydrocarbon (HC) and β-carotene (BC) concentrations, TLC of total extracts” value is on record as “remained consistent”. The “effect of compound treatment on culture growth” value in the assay on KAS603, a Chlorella sp. [2] is “no evidence that compound treatment slowed growth”. The “Nile Red fluorescence within cells” value in the assay on P. Parvum [3], with Chlorella sp. and in the assay with Schizochytrium sp. was “increases in Nile Red fluorescence” in each case. In addition, the cell concentrations achieved result with P. Parvum [4] was “higher cell concentrations than did the controls”. Also, in the assay on P. Parvum [4], the “onset of culture decline” value is reported as “began to decline sooner than the controls”.

As for `COc1ccc(Cl)cc1C(=O)NCCc1ccc(S(=O)(=O)NC(=O)NC2CCCCC2)cc1` [glyburide], the “β-carotene and chlorophyll outside the cells (HPLC)” value in the assay with KAS603, a Chlorella sp. [5] (0.05 mM glyburide for 24 hrs) was “neither β-carotene nor chlorophyll were detected outside the cells”. The “appearance of raw hexane extractions” value with KAS603, a Chlorella sp. [5] (0.05 mM glyburide, control group not coloured) is listed as “visibly colored”. Further, the “external oil recovered by hexane sweep (in words)” value with KAS603, a Chlorella sp. [5] (4 hours after glyburide) is given as “no immediate increases in external oil”; in the assay on KAS603, a Chlorella sp. [5] (24 hours after glyburide exposure), “significantly larger quantities of oil were recovered”. For the same compound, the “Weights of oil recovered from outside cells following glyburide treatment” value in the assay on KAS603, a Chlorella sp. [5] (T = 0 (at glyburide addition), cultures pre-treated 48 h with 0.3 mM sodium oxamate, listed as GLB1) came out at 0.0003 g; in the assay with KAS603, a Chlorella sp. [5] (T = 0 (at glyburide addition), cultures pre-treated 48 h with 0.3 mM sodium oxamate, listed as GLB2), 0.0002 g; with KAS603, a Chlorella sp. [5] (T = 0 (at glyburide addition), cultures pre-treated 48 h with 0.3 mM sodium oxamate, listed as GLB3), 0.0003 g; in the assay on KAS603, a Chlorella sp. [5] (T = 4 hours after 0.05 mM glyburide, oxamate pre-treated cultures, listed as GLB1), 0.0002 g; with KAS603, a Chlorella sp. [5] (T = 4 hours after 0.05 mM glyburide, oxamate pre-treated cultures, listed as GLB2) it was 0.0004 g; in the assay with KAS603, a Chlorella sp. [5] (T = 4 hours after 0.05 mM glyburide, oxamate pre-treated cultures, listed as GLB3) it was 0.0004 g. For the same compound, the “Weights of oil recovered from outside cells following glyburide treatment” value with KAS603, a Chlorella sp. [5] (T = 24 hours after 0.05 mM glyburide, oxamate pre-treated cultures, listed as GLB1) was found to be 0.0016 g; in the assay on KAS603, a Chlorella sp. [5] (T = 24 hours after 0.05 mM glyburide, oxamate pre-treated cultures, listed as GLB2) it was 0.0014 g; with KAS603, a Chlorella sp. [5] (T = 24 hours after 0.05 mM glyburide, oxamate pre-treated cultures, listed as GLB3), 0.0013 g. The “quantity of lipid species of intermediate polarity (between FFA and 1,3DG) in extracellular lipids, TLC” value in the assay on KAS603, a Chlorella sp. [5] (glyburide treated groups vs control) is “significantly increased”. Besides, in the assay on KAS603, a Chlorella sp. [5] (glyburide treated vs untreated, 24 h), the “external hydrocarbon (HPLC)” value is on record as “An increase in external hydrocarbon”. In addition, in the assay on KAS603, a Chlorella sp. [2], the “effect of compound treatment on culture growth” value is on record as “no evidence that compound treatment slowed growth”. Also, in the assay on algal cells, the “Nile Red fluorescence in the growth medium environment” value is given as “an increase in Nile Red fluorescence”. Also, the “oily sheen on the culture surface” value in the assay with P. Parvum [6] (500 mL culture, glyburide 24 h, no oxamate, vs control culture) is listed as “much more prevalent”. Besides, the “lipid (TAG) in culture supernatant extract, TLC” value in the assay on P. Parvum [6] (glyburide/oxamate-treated subculture vs DMSO control on oxamate) is on record as “increase the production and/or secretion of lipid, specifically triacylglyceride (TAG)”. In addition, the “swirls of secreted oil on the culture surface” value in the assay with P. Parvum [6] (oxamate treated culture, 400 mL subculture, glyburide in DMSO 24 h, control had very few swirls) was “a number of swirls on the surface”.
